These results are taken from patent US10640457B2, “Histone acetyltransferase activators and uses thereof” (The Trustees of Columbia University in the City of New York, priority 2009, dated 2020).

SMILES strings stand for the structures. pIC50: −log10 of the molar value. Where “and” joins values, the source holds several entries; their conditions need not be identical. Identical values can stand only once. Entries after “also recorded” stand apart in the source; their conditions may differ.

A short description of data set [1]: Pharmacokinetics and brain penetration, plasma and brain by LC-MS/MS. Type of data set: in vivo, BALB/c mice. As for the experimental part: After i.p. and i.v. administration at 20 mg/kg to BALB/c mice, plasma and brain concentrations were determined by LC-MS/MS.
Data set [2] deals with histone acetylation (ACH3) in hippocampus, cortex, liver. As to the kind of experiment: Western blot of histone acetylation in mouse tissues after compound administration. Type of data set: in vivo, mice. An excerpt: The mice liver and hippocampus were extracted 1 hr after treatment. […] In addition to the mouse liver and hippocampus, the mouse cortex was also extracted.
The BBB was by-passed by giving it through cannulas implanted onto the dorsal hippocampus. Both the hippocampus and cortex were extracted at 2 hrs or 4 hrs after treatment.
Two and four hrs after its administration, the mice were sacrificed and hippocampi were extracted. […] Purity was verified through Nuclear Magnetic Resonance (NMR). […] Hippocampus extraction was made at 3 different time points (0.5, 1 and 2 hrs post treatment). We then ran a western blotting for ACH3.
The compound was i.p. administered at 20 mg/Kg, mice were sacrificed 30 min later, and hippocampi were removed and quickly frozen for WB analysis. […] (each herein incorporated by reference in its entirety). […]

The subject of data set [3] is YAC128 mice. As to the kind of experiment: Accelerating rotarod in YAC128 Huntington's Disease mice. Type of data set: in vivo. Particulars: YF2 5 mg/kg from age 2 months. As for the experimental part:
Animals: Mouse models of Huntington's Disease (YAC128) versus wildtype (WT) littermates.
Accelerating Rotarod: This assay is a common assay used to monitor motor coordination in mouse models of Huntington's disease (HD). After a training period to acclimatize the mice to the apparatus, mice are placed on a rod rotating at 5 rpm. Over the test period of 300 sec, the rod increases its rotational speed from 5 rpm to 40 rpm. The time at which the mouse falls off of the rod is recorded. Each mouse is subject to 3 runs per day (shown as a per day average) across 3 days (d1, d2, d3). Typically 8 to 12 mice per group are used in this assay. Both male and female data are shown for age 4 months (FIG. 83A) and 6 months (FIG. 83B).

Data set [4] concerns the target HDAC1 (Homo sapiens, UniProt Q13547). As to the kind of experiment: HDAC1 fluorogenic activity assay. Conditions: for % Activity: Repeat1/Repeat2, listed as OA2.
Data set [5] addresses T1, Sirtuin 1 (Homo sapiens, UniProt Q96EB6).
T1 sequence (Q96EB6 1-747): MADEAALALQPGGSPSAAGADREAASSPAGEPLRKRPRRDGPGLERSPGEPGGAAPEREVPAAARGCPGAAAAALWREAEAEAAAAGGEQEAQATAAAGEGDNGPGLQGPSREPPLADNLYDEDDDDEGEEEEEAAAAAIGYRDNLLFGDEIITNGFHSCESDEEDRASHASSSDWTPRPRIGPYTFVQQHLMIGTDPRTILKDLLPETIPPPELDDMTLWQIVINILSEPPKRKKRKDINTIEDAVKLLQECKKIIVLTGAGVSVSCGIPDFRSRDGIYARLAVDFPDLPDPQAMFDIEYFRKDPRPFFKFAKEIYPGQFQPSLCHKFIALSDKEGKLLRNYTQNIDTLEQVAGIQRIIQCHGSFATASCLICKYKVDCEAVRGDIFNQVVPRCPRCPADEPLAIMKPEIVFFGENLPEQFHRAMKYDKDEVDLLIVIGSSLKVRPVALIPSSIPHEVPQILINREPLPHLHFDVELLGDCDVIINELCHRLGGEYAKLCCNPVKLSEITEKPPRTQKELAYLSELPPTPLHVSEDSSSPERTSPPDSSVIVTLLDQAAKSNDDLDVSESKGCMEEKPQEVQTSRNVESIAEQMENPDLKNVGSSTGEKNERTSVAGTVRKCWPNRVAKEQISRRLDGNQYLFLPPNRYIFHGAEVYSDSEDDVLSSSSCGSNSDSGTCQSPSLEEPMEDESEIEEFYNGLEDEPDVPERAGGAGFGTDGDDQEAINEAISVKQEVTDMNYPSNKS
As to the kind of experiment: Sirtuin 1 fluorogenic activity assay. Conditions: for % Activity: Repeat1/Repeat2, listed as OA2.

Data set [6] concerns hippocampal slices from APP/PS1 mice. The experiment in a line: CA1 LTP in hippocampal slices of APP/PS1 and WT mice (TSA). As for the experimental part:
At this age the Tg mice just start showing the synaptic plasticity and memory impairments [A29] (herein incorporated by reference in its entirety). Basal synaptic transmission (BST) was similar between APP/PS1 and WT mice. We found no difference in BST among the 2 groups as previously shown in mice of this age [A29] (herein incorporated by reference in its entirety). Hippocampal slices were then perfused with TSA (1.65 μM) for 30 min before inducing LTP through tetanic stimulation of the Schaeffer collateral pathway. Potentiation in TSA treated APP/P S1 slices was far greater than in vehicle-treated APP/PS1 slices (FIG. 17). […] The observation that inspired these studies was the result of a series of experiments in which we tested whether a brief application of the HDAC inhibitor TSA was capable of rescuing the defect in LTP shown by slices from 3-4 month-old APP/PS1 mice (for a detailed description of the experiments showing the characterization of these mice [B50]; herein incorporated by reference in its entirety). At this age the transgenic mice just start showing the synaptic plasticity and memory impairments [B14, B50] (each herein incorporated by reference in its entirety)). […] (each herein incorporated by reference in its entirety), basal synaptic transmission (BST) was similar between APP/PS1 and WT mice. Hippocampal slices were then perfused with TSA (1.65 nM) for 30 min before inducing LTP through tetanic stimulation of the Schaeffer collateral pathway. Potentiation in TSA treated APP/PS1 slices was far greater than in vehicle-treated APP/PS1 slices (two-way ANOVA: F1,11=13.166, p=0.004; FIG. 17). […] Thus, HDAC inhibition is capable of rescuing the defect in LTP in the APP/PS1 animal model of Aβ deposition.

The mark [7] stands for this setting: IP administration 20 mg/kg, brain.
[8] abbreviates: IV administration 20 mg/kg, brain.

Sequence of HDAC1 (Q13547 whole entry): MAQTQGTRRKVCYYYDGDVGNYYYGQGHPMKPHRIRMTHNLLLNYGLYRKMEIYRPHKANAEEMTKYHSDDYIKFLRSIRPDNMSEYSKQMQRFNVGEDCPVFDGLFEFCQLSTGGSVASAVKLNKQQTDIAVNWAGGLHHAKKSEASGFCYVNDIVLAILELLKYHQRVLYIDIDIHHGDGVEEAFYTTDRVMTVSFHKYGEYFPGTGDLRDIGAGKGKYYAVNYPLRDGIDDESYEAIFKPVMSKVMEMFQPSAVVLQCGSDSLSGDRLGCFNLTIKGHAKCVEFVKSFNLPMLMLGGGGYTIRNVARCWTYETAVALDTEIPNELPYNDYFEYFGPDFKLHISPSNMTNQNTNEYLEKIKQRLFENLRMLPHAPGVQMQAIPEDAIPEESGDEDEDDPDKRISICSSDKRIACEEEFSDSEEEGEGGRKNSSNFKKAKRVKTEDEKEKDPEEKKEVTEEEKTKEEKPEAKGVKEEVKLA

Consider `CCOc1cccc(OCCN(C)C)c1C(=O)Nc1ccc(Cl)c(C(F)(F)F)c1` [YF2], for which the figures for the AUC0-t in data set [1] (setting [7]) and in data set [1] (setting [8]) were 6493 ng·h/g and 22222 ng·h/g, respectively. In addition, the “AUC0-∞” value is 6564 ng·h/g in data set [1] (setting [7]) and 22581 ng·h/g in data set [1] (setting [8]). Also, the F in data set [1] (setting [7]) stood at 29.2%; in data set [1] (IP administration 20 mg/kg, plasma), 41.0%. In data set [2] (20 mg/Kg i.p., sacrificed 30 min later), the “acetylation of H3K4, H3K9, H3K14, H4K5, H4K8, H4K12, H4K16 and H2B in hippocampus” value was “increased”. Besides, in data set [2] (50 mg/kg i.p., 2 and 4 hrs after administration), the ACH3 in hippocampus entry is given as “increase”. Also, in data set [2] (5, 10, 20 mg/Kg i.p. in saline, 0.5, 1 and 2 hrs, except 1 hr-10 mg/kg), the “ACH3 levels in hippocampus” value is recorded as “dramatically increased”. Also, the “histone acetylation levels following Aβ elevation” value in data set [2] (after foot shock, FIG. 80) is listed as “restores”; in data set [2] (basal conditions, FIG. 79), “restores”. In addition, the “crossing of the blood brain barrier (BBB)” value in data set [2] (concluded from brain histone acetylation after i.p. administration) was “able to cross the BBB; also recorded: crosses the BBB and the cell membrane”. Moreover, in data set [2] (i.p. 5 mg/kg, Aβ 200 nM infused onto dorsal hippocampi, 5 mg/kg), the “Aβ-induced decrease in H3 acetylation levels in hippocampus” value was “able to rescue; also recorded: rescued”. In addition, in data set [2] (i.p., FIG. 1), the “histone 3 acetylation levels of the hippocampus” value was “increases”. The “rotarod performance deficit of YAC128 vs WT mice” value in data set [3] (female mice, 6 months of age) was “significance is lost”; in data set [3] (male mice, 4 months of age), “significance is lost”. The pIC50 in data set [4] and in data set [5] was below 3.70 in each case. Also, the “% Activity” value was 98.80% and 98.28% in data set [4] (OA2 Log[nM] 0.5); 97.64% and 98.21% in data set [4] (OA2 Log[nM] 1.0); 96.72% and 97.14% in data set [4] (OA2 Log[nM] 1.5); 96.42% and 96.10% in data set [4] (OA2 Log[nM] 2.0); 95.81% and 97.49% in data set [4] (OA2 Log[nM] 2.5); 96.63% and 95.68% in data set [4] (OA2 Log[nM] 3.0). Also, the “% Activity” value was 93.12% and 97.60% in data set [4] (OA2 Log[nM] 3.5); 91.35% and 92.53% in data set [4] (OA2 Log[nM] 4.0); 92.01% and 90.19% in data set [4] (OA2 Log[nM] 4.5); 63.73% and 61.76% in data set [4] (OA2 Log[nM] 5.3); 94.26% and 99.92% in data set [5] (OA2 Log[nM] 0.5); 87.25% and 99.42% in data set [5] (OA2 Log[nM] 1.0). The “% Activity” value in data set [5] (OA2 Log[nM] 1.5) was 100.27% and 87.48%; in data set [5] (OA2 Log[nM] 2.0), 97.98% and 92.56%; in data set [5] (OA2 Log[nM] 2.5) it was 101.56% and 100.81%; in data set [5] (OA2 Log[nM] 3.0), 108.86% and 94.87%; in data set [5] (OA2 Log[nM] 3.5) it was 96.93% and 100.23%; in data set [5] (OA2 Log[nM] 4.0), 96.69% and 89.85%. Also, the “% Activity” value in data set [5] (OA2 Log[nM] 4.5) was 98.83% and 93.79%; in data set [5] (OA2 Log[nM] 5.3), 99.02% and 100.98%.

Turning to `CC(/C=C/C(=O)NO)=C\[C@@H](C)C(=O)c1ccc(N(C)C)cc1` [TSA, trichostatin A], the baseline transmission entry in data set [6] (APP/PS1 and WT slices that received no tetanus) is “did not affect”. In data set [6] (WT slices, TSA perfused 30 min), the “amplitude of LTP in WT slices” value is “did not change; also recorded: no effect”. In data set [6] (slices of 3-4 month-old APP/PS1 mice, TSA perfused 30 min before tetanus), the “potentiation (LTP) vs vehicle-treated APP/PS1 slices” value is “far greater; also recorded: reverses”.
